Test results as given in PMC6163455 (Biomolecules, 2018).

Legend:
T47D cells [1] = assay: live-cell confocal microscopy of β-lactamase internalization; assay type: cell-based, human; settings: 4 µM conjugate with SpyC_BLA or unconjugated SpyC_BLA, 2 h, CCF2-AM 1 h, Figure 2g–n
Description: (§1) Figure 2 Live-cell confocal microscopy visualizes CPP-mediated β-lactamase internalization. The CPP-mediated uptake of CPP_SpyT/SpyC_BLA conjugates (4 µM) was visualized in CHO-K1 cells (a–f) and T47D cells (g–n). SpyC_BLA was conjugated to CPP_SpyT peptides. […] The degree of uptake is CPP-dependent and visualized by blue fluorescing cells. Bar scale is 50 µm (a–j) or 14.6 µm (k–n).
(§2) Cells were seeded (CHO-K1, 37,500 cells/mL; T47D 37,500 cells/mL) onto 4-well ibiTreat chamber slides (Thermo Fisher Scientific) and incubated for 48 h at 37 °C, 5% CO2. The medium was removed and replaced with medium containing SpyC_BLA/CPP_SpyT conjugated or unconjugated SpyC_BLA proteins and cells were incubated for 2 h at 37 °C, 5% CO2. After incubation, the cells were washed to remove any SpyC_BLA protein that had not internalized, loaded with substrate CCF2-AM (2 µM final concentration in media containing 1% FCS), and incubated for 1 h at room temperature. Live cells were visualized through confocal microscopy. Images were collected using a Nikon C2 Confocal Microscope through a 40× differential interference contrast (DIC) objective after excitation by a 408 nm laser. Bar scales in images represent 50 µm or 14.6 µm (zoom magnification 3.4×).

CHO-K1 cells [2] = assay: as above; assay type: cell-based, Chinese hamster; settings: 4 µM conjugate with SpyC_BLA or unconjugated SpyC_BLA, 2 h, CCF2-AM 2 µM 1 h, Figure 2a–f
Description: as §1, §2

CHO-K1 cells [3] = assay: β-lactamase internalization assay (CCF2-AM, flow cytometry); assay type: cell-based, Chinese hamster
Description: The β-lactamase internalization assay is based on the simple principle that CPP-dependent intracellular delivery of recombinant β-lactamase protein can be detected by cleavage of the CCF2 substrate in the cytosol (Figure 1a). In brief, CPP sequences and the β-lactamase cargo protein can be brought together by conjugation or can be recombinantly expressed as a CPP_β-lactamase (CPP_BLA) fusion (Figure 1a, step i). The CPP_BLA protein fusions or conjugates are incubated on cells, which are then washed to remove excess protein that has not internalized (Figure 1a, step ii). The cells are incubated further (i.e., loaded) with the CCF2-AM cell-permeable dye for 1 h (Figure 1a, step iii). […] This reaction is measured as a shift in fluorescent signal from green to blue. […]
(§3) To validate the assay, we first used a conjugation approach based on the SpyTag (SpyT) peptide/SpyCatcher (SpyC) protein ligation technology. […] Protein conjugates were incubated on CHO-K1 or T47D cells, measuring the fluorescence shift as percentage of blue fluorescent CHO-K1 or T47D cells after 1 h (Figure 1b,c, respectively). […]
The two phylomer CPPs with the strongest β-lactamase internalization signal and the canonical CPP TAT (positive control) were expressed as direct fusions with β-lactamase (CPP_BLA proteins; sequences in Table A2). […]

CHO-K1 cells [4] = assay: cell fractionation and anti-β-lactamase immunoblotting; assay type: cell-based, Chinese hamster; settings: 8 µM, 1.5 h at 37 °C, digitonin cytosol extraction, 4 µg aliquots, anti-β-lactamase antibody, Figure S1
Description: Supplementary Information
Supplementary Figures: β-Lactamase Tools for Establishing Cell Internalization and Cytosolic
Delivery of Cell Penetrating Peptides
Figure S1. Verification of cell penetrating peptides (CPP)-mediated β-lactamase internalization by immunoblotting. MW: molecular weight.
Aliquots (4 µg) of cytosolic and membrane soluble CHO-K1 cell fractions from β-lactamase assays were separated by sodium dodecyl sulfate–polyacrylamide gel electrophoresis (SDS-PAGE) through a 4-12% (w/v) polyacrylamide Bis-Tris gel, transferred to polyvinylidene difluoride (PVDF) membrane, and immunoblotted. β-lactamase conjugated (e.g., 1746_SpyT/SpyC_BLA) or fused (e.g., 1746_BLA recombinant) to 1746c27 and 1746 Phylomer cell penetrating peptides (CPPs) was detected in the cytosolic fraction to varying extents, while TAT-conjugated β-lactamase was predominantly detected in the membrane fraction of cell lysates. […]
delivered into the cytosol by the 1746 CPP. Internalization of unconjugated SpyC_BLA protein was not detected, either on its own (SpyC_BLA (no CPP)) or in the presence of 1746c27 peptide (1746c27, SpyC_BLA), illustrating there is no bystander uptake effect. […]
Aliquots of extracted fractions (4 µg) were separated through a 4–12% Bis-Tris gel (Invitrogen, Carlsbad, CA, USA). Protein expression in the fractions was detected using monoclonal anti-β- […]

T47D cells [5] = assay: β-lactamase internalization assay (CCF2-AM, flow cytometry); assay type: cell-based, human; settings: CPP_SpyT/SpyC_BLA conjugates or unconjugated SpyC_BLA, 1 h at 37 °C, CCF2-AM 1 µM, Figure 1c, No CPP control n = 3
Description: The β-lactamase internalization assay is based on the simple principle that CPP-dependent intracellular delivery of recombinant β-lactamase protein can be detected by cleavage of the CCF2 substrate in the cytosol (Figure 1a). In brief, CPP sequences and the β-lactamase cargo protein can be brought together by conjugation or can be recombinantly expressed as a CPP_β-lactamase (CPP_BLA) fusion (Figure 1a, step i). The CPP_BLA protein fusions or conjugates are incubated on cells, which are then washed to remove excess protein that has not internalized (Figure 1a, step ii). The cells are incubated further (i.e., loaded) with the CCF2-AM cell-permeable dye for 1 h (Figure 1a, step iii). Once inside the cell, CCF2-AM is converted by endogenous cytoplasmic esterases to CCF2, which is retained in the cytosol. In cells where β-lactamase has internalized through CPP activity, CCF2 is cleaved by β-lactamase (Figure 1a, step iv). This reaction is measured as a shift in fluorescent signal from green to blue. […]
as §3

Substance | uptake of SpyC_BLA visualized by blue fluorescing cells (T47D cells [1]) | uptake of SpyC_BLA visualized by blue fluorescing cells (CHO-K1 cells [2]) | internalization of CPP-conjugated SpyC_BLA (percentage of blue viable cells) (CHO-K1 cells [3]; CPP_SpyT/SpyC_BLA conjugates or unconjugated SpyC_BLA, 0.5–4 µM, 1 h at 37 °C, CCF2-AM 2 µM, Figure 1b, No CPP control n = 7) | internalization of recombinantly expressed CPP_β-lactamase fusion protein (percentage of blue viable cells) (CHO-K1 cells [3]; recombinant CPP_BLA fusion proteins, SpyC_BLA as negative control, Figure 1d) | β-lactamase detected in cytosolic and membrane cell fractions (immunoblot) (CHO-K1 cells [4]) | internalization of CPP-conjugated SpyC_BLA (percentage of blue viable cells) (T47D cells [5])
GRKKRRQRRRGASAHIVMVDAYKPTKG [TAT_SpyT, reference compound] | enabled CPP-dependent uptake of SpyC_BLA | enabled CPP-dependent uptake of SpyC_BLA |  |  |  | 
PLKPKKPKTQEKKKKQPPKPKKPKTQEKKKKQPPKPKRGASAHIVMVDAYKPTKG [1746_SpyT, phylomer CPP 1746 synthesized as SpyTag fusion] | enabled CPP-dependent uptake of SpyC_BLA | enabled CPP-dependent uptake of SpyC_BLA |  |  |  | 
SpyC_BLA: recombinantly expressed SpyCatcher_β-lactamase protein; unconjugated it is the 'No CPP' negative control | minimal evidence of internalization | minimal evidence of internalization | does not internalize | does not internalize | not detected | does not internalize
PLTQRTLQRGKKPKQRQNWKKARTSSAKTAPKTVVSRTTSQRKGASAHIVMVDAYKPTKG [0169_SpyT, phylomer CPP 0169 synthesized as SpyTag fusion] |  | enabled CPP-dependent uptake of SpyC_BLA |  |  |  | 
RKQKSLQTKLAENPPVPRKKRQSRPRWKQWLQKGASAHIVMVDAYKPTKG [0084_SpyT, phylomer CPP 0084 synthesized as SpyTag fusion] |  | enabled CPP-dependent uptake of SpyC_BLA |  |  |  | 
KKKKQPPKPKKPKTQEKKKKQPPKPKRGASAHIVMVDAYKPTKG [1746c27_SpyT, phylomer CPP 1746c27 synthesized as SpyTag fusion] | enabled CPP-dependent uptake of SpyC_BLA | enabled CPP-dependent uptake of SpyC_BLA |  |  |  | 
